Measurements reported in patent US20050090531A1, “MAG expression promoters” (priority 1999, published 2005).

How the values were obtained:
Assay type in all cases: cell-based, rat
[1] = system: myelination of axon in co-cultured DRG nerve cells and Schwann cells; assay: Myelination of axon in co-culture of DRG nerve cells and Schwann cells (Sudan Black B myelin staining), Experimental Example 1; conditions: 2 weeks of co-culture
Description: The preparation of nerve cell followed the method of Seung U. Kim (Experimental Protocols for Brain and Nerve—From cultured cell to functional analysis, ed. Katsuhiko Mikoshiba, Takao Shimizu, Yodosha). That is, an embryo was taken out from a 18-day pregnant female rat (Crj: CD(SD)IGS), from which dorsal spinal nerve root ganglia (hereinafter to be referred to as DRG) was removed under a stereoscopic microscope. DRG was treated with 0.25% trypsin and DNase I at 37° C. to disperse the cells. Adherent cells other than nerve cells were removed and the cells (5000 cells) were plated on a polylysine-coated plate. The cells were cultured in DMEM containing 10% FCS supplemented with the nerve growth factor (hereinafter to be referred to as NGF, 50 ng/ml) in a CO2 incubator. After 3 days of culture, the medium was changed to one containing Ara-C (1 μmol/l) to remove proliferative cells other than the nerve cells.
The preparation of Schwann cells followed the method of Ichiro Matsuoka (Springer Neuroscience Lab Manual 1, ed. Hiroshi Hatanaka, Springer-Verlag Tokyo). That is, the sciatic nerve of a neonatal rat (1 to 3 days postnatal, (Crj: CD(SD)IGS)) was removed under a stereoscopic microscope and adventitia was removed. By treating with trypsin/collagenase and DNase I in CMF-HBSS, the cells were dispersed. Using a culture flask, the cells were cultured in DMEM containing 10% FCS in a CO2 incubator. After culturing in a medium containing Ara-C, the cells were recovered and the cell suspension was treated successively with anti-Thy 1.1 and rabbit complement to remove cells other than the Schwann cells. Using a collagen-coated culture flask, the cells were cultured in DMEM containing 10% FCS in a CO2 incubator.
After 1 week from the start of the culture of DRG nerve cells, Schwann cells (20,000 cells) were plated on a plate in which DRG nerve cells had been cultured. he medium for co-culture was DMEM containing 2 μmol/l f forskolin, 50 ng/ml of NGF and 10% FCS. […]

[2] = system: myelin-related glycoprotein (MAG); assay: Time-course of MAG expression in DRG nerve cell/Schwann cell co-culture, Experimental Example 3; conditions: 10 μmol/ml, added every 2 days
Description: According to the method described in Experimental Example 1, DRG nerve cells and Schwann cells were co- cultured. A DMSO solution containing the compound of the present invention (Y-128, […]) or ascorbic acid (50 μg/ml) as a positive control compound was added to the medium every 2 days. The medium DMSO was added in the same manner as was the negative control compound. In the same manner as in Experimental Example 2, MAG was quantitatively determined before addition of the compounds and 3, 6, 9, 12, 15 and 18 days after addition.

[3] = system: myelin-related glycoprotein (MAG); assay: MAG expression in DRG nerve cell/Schwann cell co-culture by immunoblotting, concentration dependence, Experimental Example 2; conditions: tested at 1, 3, 10 or 30 μmol/l, added every 2 days for 2 weeks; immunoblot, semi-quantitative
Description: According to the method described in Experimental Example 1, DRG nerve cells and Schwann cells were co-cultured. A DMSO solution containing the compound of the present invention (Y-128, 1, 3, 10 or 30 μmol/l) or ascorbic acid (50 μg/ml) as a positive control compound was added to the medium every 2 days for 2 weeks. As a negative control compound, the vehicle DMSO was added in the same manner. After 2 weeks from the start of the addition of the compound, the medium was removed and a sample buffer containing sodium dodecyl sulfate (SDS) was added to the well for solubilization of the cells.
A part thereof was separated by polyacrylamide gel electrophoresis and the migrated protein was transferred to a PVDF membrane. By immunoblotting and chemiluminescence, the objective protein was detected on an X ray film. A band detected at about 100 kDa migration was identified as a signal of myelin-related glycoprotein (MAG). The X ray film was scanned and the image was imported to a computer, and the expression of MAG was semi-quantitatively determined using an analysis software, ImageQuaNT (Molecular Dynamics). […] From the above-mentioned Experimental Example, it was clarified that the compound of the present invention (Y-128) increased the expression of MAG from the concentration of 3 μmol/l.

Structure (SMILES): O=C1O[C@H]([C@@H](O)CO)C(O)=C1O [ascorbic acid, reference compound]
- staining of axon (myelin stain) ([1]; 50 μg/ml, added every 2 or 3 days, 12 wells, Sudan Black B stain): axon was stained deep in every well

Structure (SMILES): Cc1ccc(-n2ccnc2)cc1[C@H](O)c1c(C)cc(C(=O)O)cc1C [Y-128, (S)-4-[α-hydroxy-5-(1-imidazolyl)-2-methylbenzyl]-3,5-dimethylbenzoic acid]
- time after addition at which the expression of MAG disappeared [2]: 18 days
- time-course changes of MAG expression compared with positive control ascorbic acid (50 μg/ml) ([2]; up to 18 days): the same as that by the positive control compound, ascorbic acid
- time after addition at which expression of MAG was increased maximally ([2]; measured 3, 6, 9, 12, 15 and 18 days after addition): 6 days and 12 days
- concentration from which the expression of MAG was increased [3]: ≥ 3 µmol/L
- effect on myelination of axon (conclusion) ([1]; 3 μmol/l): promoted myelination of axon
- wells in which axon was stained as deep as ascorbic acid addition group ([1]; 3 μmol/l, added every 2 or 3 days, Sudan Black B stain): 5 wells out of 12 wells
